Measured values as given in ChEMBL document CHEMBL1124853, “Synthesis and antiallergy activity of N-[2-(dimethylamino)ethyl]-4-aryl-1-piperazinecarboxamide derivatives” (1990).

What was measured:
[1] = tested on: Rattus norvegicus; test: Oral antiallergic activity in rat passive foot anaphylaxis (PFA) assay as percent change in volume of foot edema at a dose 31.6 mg/kg compared to -63% of aminophylline at 100 mg/kg; assay type: functional
[2] = tested on: Rattus norvegicus; test: Oral antiallergic activity in rat passive foot anaphylaxis (PFA) assay as percent change in volume of foot edema at a dose 31.6 mg/kg compared to -68% of aminophylline at 100 mg/kg; assay type: functional
[3] = tested on: Rattus norvegicus; test: Oral antiallergic activity in rat passive foot anaphylaxis (PFA) assay as percent change in volume of foot edema at a dose 31.6 mg/kg compared to -61% of aminophylline at 100 mg/kg; assay type: functional
[4] = tested on: Rattus norvegicus; test: Oral antiallergic activity in rat passive foot anaphylaxis (PFA) assay as percent change in volume of foot edema at a dose 31.6 mg/kg compared to -50% of aminophylline at 100 mg/kg; assay type: functional
[5] = tested on: Cavia porcellus; test: Oral antiallergic activity in the Guinea Pig Anaphylaxis (GPA) at the dose of 31.6 mg/kg; 6 guinea pigs were challenged with the antigen; assay type: functional
[6] = tested on: Rattus norvegicus; test: Oral antiallergic activity in rat passive foot anaphylaxis (PFA) assay as percent change in volume of foot edema at a dose 31.6 mg/kg compared to -74% of aminophylline at 100 mg/kg; assay type: functional
[7] = tested on: Rattus norvegicus; test: Oral antiallergic activity in rat passive foot anaphylaxis (PFA) assay as percent change in volume of foot edema at a dose 31.6 mg/kg compared to -71% of aminophylline at 100 mg/kg; assay type: functional
[8] = tested on: Rattus norvegicus; test: Oral antiallergic activity in rat passive foot anaphylaxis (PFA) assay as percent change in volume of foot edema at a dose 31.6 mg/kg compared to -67% of aminophylline at 100 mg/kg; assay type: functional
[9] = tested on: Rattus norvegicus; test: Oral antiallergic activity in rat passive foot anaphylaxis (PFA) assay as percent change in volume of foot edema at a dose 10 mg/kg compared to -77% of aminophylline at 100 mg/kg; assay type: functional
[10] = tested on: Rattus norvegicus; test: Oral antiallergic activity in rat passive foot anaphylaxis (PFA) assay as percent change in volume of foot edema at a dose 31.6 mg/kg compared to -73% of aminophylline at 100 mg/kg; assay type: functional
[11] = tested on: Rattus norvegicus; test: Oral antiallergic activity in rat passive foot anaphylaxis (PFA) assay as percent change in volume of foot edema at a dose 31.6 mg/kg compared to -58% of aminophylline at 100 mg/kg; assay type: functional
[12] = tested on: Rattus norvegicus; test: Oral antiallergic activity in rat passive foot anaphylaxis (PFA) assay as percent change in volume of foot edema at a dose 31.6 mg/kg compared to -64% of aminophylline at 100 mg/kg; assay type: functional
[13] = tested on: Rattus norvegicus; test: Oral antiallergic activity in rat passive foot anaphylaxis (PFA) assay as percent change in volume of foot edema at a dose 31.6 mg/kg compared to -65% of aminophylline at 100 mg/kg; assay type: functional
[14] = tested on: Rattus norvegicus; test: Oral antiallergic activity in rat passive foot anaphylaxis (PFA) assay as percent change in volume of foot edema at a dose 10 mg/kg compared to -69% of aminophylline at 100 mg/kg; assay type: functional
[15] = tested on: Rattus norvegicus; test: Oral antiallergic activity in rat passive foot anaphylaxis (PFA) assay as percent change in volume of foot edema at a dose 31.6 mg/kg compared to -77% of aminophylline at 100 mg/kg; assay type: functional
[16] = tested on: Rattus norvegicus; test: Oral antiallergic activity in rat passive foot anaphylaxis (PFA) assay as percent change in volume of foot edema at a dose 31.6 mg/kg compared to -62% of aminophylline at 100 mg/kg; assay type: functional
[17] = tested on: Rattus norvegicus; test: Oral antiallergic activity in rat passive foot anaphylaxis (PFA) assay as percent change in volume of foot edema at a dose 10 mg/kg compared to -76% of aminophylline at 100 mg/kg; assay type: functional
[18] = tested on: Cavia porcellus; test: Oral antiallergic activity in the Guinea Pig Anaphylaxis (GPA) at the dose of 10 mg/kg; 4 guinea pigs were challenged with the antigen
[19] = tested on: Rattus norvegicus; test: Oral antiallergic activity in rat passive foot anaphylaxis (PFA) assay as percent change in volume of foot edema at a dose 3.16 mg/kg compared to -84% of aminophylline at 100 mg/kg
[20] = tested on: Rattus norvegicus; test: Oral antiallergic activity in rat passive foot anaphylaxis (PFA) assay as percent change in volume of foot edema at a dose 31.6 mg/kg compared to -80% of aminophylline at 100 mg/kg; assay type: functional
[21] = tested on: Rattus norvegicus; test: Oral antiallergic activity in rat passive foot anaphylaxis (PFA) assay as percent change in volume of foot edema at a dose 31.6 mg/kg compared to -66% of aminophylline at 100 mg/kg; assay type: functional
[22] = tested on: Rattus norvegicus; test: Oral antiallergic activity in rat passive foot anaphylaxis (PFA) assay as percent change in volume of foot edema at a dose 31.6 mg/kg compared to -78% of aminophylline at 100 mg/kg; assay type: functional
[23] = tested on: Rattus norvegicus; test: Oral antiallergic activity in rat passive foot anaphylaxis (PFA) assay as percent change in volume of foot edema at a dose 31.6 mg/kg compared to -69% of aminophylline at 100 mg/kg; assay type: functional
[24] = tested on: Cavia porcellus; test: Oral antiallergic activity in the Guinea Pig Anaphylaxis (GPA) at the dose of 31.6 mg/kg; 4 guinea pigs were challenged with the antigen
[25] = tested on: Rattus norvegicus; test: Oral antiallergic activity in rat passive foot anaphylaxis (PFA) assay as percent change in volume of foot edema at a dose 31.6 mg/kg compared to -79% of aminophylline at 100 mg/kg; assay type: functional
[26] = tested on: Cavia porcellus; test: Oral antiallergic activity in the Guinea Pig Anaphylaxis (GPA) at the dose of 200 mg/kg; 3 guinea pigs were challenged with the antigen; assay type: functional
[27] = tested on: Rattus norvegicus; test: Oral antiallergic activity in rat passive foot anaphylaxis (PFA) assay as percent change in volume of foot edema at a dose 10 mg/kg compared to -62% of aminophylline at 100 mg/kg; assay type: functional
[28] = tested on: Rattus norvegicus; test: Oral antiallergic activity in rat passive foot anaphylaxis (PFA) assay as percent change in volume of foot edema at a dose 31.6 mg/kg compared to -76% of aminophylline at 100 mg/kg; assay type: functional
[29] = tested on: Rattus norvegicus; test: Oral antiallergic activity in rat passive foot anaphylaxis (PFA) assay as percent change in volume of foot edema at a dose 31.6 mg/kg compared to -60% of aminophylline at 100 mg/kg; assay type: functional
[30] = tested on: Rattus norvegicus; test: Oral antiallergic activity in rat passive foot anaphylaxis (PFA) assay as percent change in volume of foot edema at a dose 31.6 mg/kg compared to -81% of aminophylline at 100 mg/kg; assay type: functional
[31] = tested on: Rattus norvegicus; test: Oral antiallergic activity in rat passive foot anaphylaxis (PFA) assay as percent change in volume of foot edema at a dose 31.6 mg/kg compared to -90% of aminophylline at 100 mg/kg; assay type: functional

## CN1CCN(CCNC(=O)N2CCN(c3ccccc3)CC2)CC1
[1]
  Change: -7%

## CN1CCN(C(=O)N2CCN(c3ccccc3)CC2)CC1
[2]
  Change: -7%

## CN(C)CCNC(=O)N1CCN(c2ccc(Br)cc2)CC1
[3]
  Change: -31%

## CN(CCNC(=O)N1CCN(c2ccccc2)CC1)Cc1ccccc1
[4]
  Change: -35%

## O=C(NCCN1CCCC1)N1CCN(c2ccccc2)CC1
[2]
  Change: -45%

## Cn1c(=O)c2[nH]cnc2n(C)c1=O.Cn1c(=O)c2[nH]cnc2n(C)c1=O.NCCN [AMINOPHYLLINE]
[5]
  No. of guinea pigs protected: 4

## O=C(NCCN1CCOCC1)N1CCN(c2ccccc2)CC1
[6]
  Change: 10%

## COc1ccccc1N1CCN(C(=O)NCCN(C)C)CC1
[6]
  Change: -21%

## CN(C)CCNC(=O)N1CCN(C(=O)c2ccccc2)CC1
[7]
  Change: -4%

## CN(C)CCNC(=O)N1CCN(c2ccccc2F)CC1
[2]
  Change: -37%

## O=C(NCCc1ccccn1)N1CCN(c2ccccc2)CC1
[6]
  Change: -3%

## CN(C)CCNC(=O)N1CCN(c2cccc(Cl)c2)CC1
[8]
  Change: -78%
[9]
  Change: -32%

## CN(C)CCNC(=O)N1CCN(c2ccc(N)cc2)CC1
[10]
  Change: -22%

## CN(C)CCNC(=O)N1CCN(c2ccc([N+](=O)[O-])cc2)CC1
[11]
  Change: -26%

## COc1ccc(N2CCN(C(=O)NCCN(C)C)CC2)cc1OC
[1]
  Change: -16%

## CN(C)CCNC(=O)N1CCN(c2cccc(F)c2)CC1
[12]
  Change: -31%

## CN(C)CCNC(=O)N1CCN(c2ccccc2Cl)CC1
[13]
  Change: -53%
[14]
  Change: -16%

## CN(C)CCNC(=O)N1CCN(c2ccc(N(C)C)cc2)CC1
[15]
  Change: -29%

## COc1cc(N2CCN(C(=O)NCCN(C)C)CC2)cc(OC)c1OC
[16]
  Change: 9%

## CN(C)CCNC(=O)N1CCN(c2ccc(F)cc2)CC1
[17]
  Change: -63%
[18]
  No. of guinea pigs protected: 1
[8]
  Change: -87%
[19]
  Change: -35%

## CN(C)CCNC(=O)N1CCN(c2ccc(C(N)=O)cc2)CC1
[20]
  Change: 0%

## CN(C)CCN(C)C(=O)N1CCN(c2ccccc2)CC1
[13]
  Change: -38%

## COc1ccc(N2CCN(C(=O)NCCN(C)C)CC2)cc1
[13]
  Change: -49%
[14]
  Change: -29%

## CN(C)CCNC(=O)N1CCN(C(c2ccccc2)c2ccccc2)CC1
[21]
  Change: -30%

## Cc1ccc(N2CCN(C(=O)NCCN(C)C)CC2)cc1
[13]
  Change: -46%

## CCOC(=O)c1ccc(N2CCN(C(=O)NCCN(C)C)CC2)cc1
[22]
  Change: -5%

## O=C(NCCCN1CCOCC1)N1CCN(c2ccccc2)CC1
[23]
  Change: -28%

## CN(C)CCOC(c1ccccc1)c1ccccc1 [DIPHENHYDRAMINE]
[24]
  No. of guinea pigs protected: 1

## CN(C)CCNC(=O)N(C)CCN(C)c1ccccc1
[25]
  Change: -23%

## O=C(NCCN1CCCCC1)N1CCN(c2ccccc2)CC1
[2]
  Change: -49%

## CN(C)CCNC(=O)N1CCN(c2ccc(Cl)c(Cl)c2)CC1
[4]
  Change: -17%

## CCN(CC)C(=O)N1CCN(C)CC1 [DIETHYLCARBAMAZINE]
[26]
  No. of guinea pigs protected: 0

## CN(C)C(=O)N1CCN(c2ccccc2)CC1
[7]
  Change: -24%

## CN(C)CCNC(=O)N1CCN(c2ccccn2)CC1
[13]
  Change: -54%
[14]
  Change: -13%

## COc1cccc(N2CCN(C(=O)NCCN(C)C)CC2)c1
[27]
  Change: -36%
[13]
  Change: -67%

## CC(=O)c1ccc(N2CCN(C(=O)NCCN(C)C)CC2)cc1
[7]
  Change: -25%

## O=C(NCCN1CCCCCC1)N1CCN(c2ccccc2)CC1
[28]
  Change: -47%

## NC(=O)N1CCN(c2ccccc2)CC1
[6]
  Change: 10%

## CN(CCNC(=O)N1CCN(c2ccccc2)CC1)c1ccccc1
[1]
  Change: -41%

## CCN(CC)CCNC(=O)N1CCN(c2ccccc2)CC1
[29]
  Change: -47%

## O=C(N1CCN(c2ccccc2)CC1)N1CCN(c2ccccc2)CC1
[23]
  Change: -10%

## CN(C)CCNC(=O)N1CCN(c2ccc(C#N)cc2)CC1
[20]
  Change: -31%

## CN(C)CCCNC(=O)N1CCN(c2ccccc2)CC1
[6]
  Change: -13%

## CN1CCN(CCCNC(=O)N2CCN(c3ccccc3)CC2)CC1
[30]
  Change: -23%

## CN(C)CCNC(=O)N1CCN(c2cccc(C(F)(F)F)c2)CC1
[3]
  Change: -18%

## CN(C)CCNC(=O)N1CCN(Cc2ccccc2)CC1
[10]
  Change: -10%

## CN(C)CCNC(=O)N1CCN(c2ccc(Cl)cc2)CC1
[27]
  Change: -48%
[24]
  No. of guinea pigs protected: 0
[13]
  Change: -61%
[16]
  Change: 27%

## CCN1CCCC(NC(=O)N2CCN(c3ccccc3)CC2)C1 (configuration not stated)
[30]
  Change: -58%

## CC(=O)Nc1ccc(N2CCN(C(=O)NCCN(C)C)CC2)cc1
[6]
  Change: 5%

## CN(C)CCNC(=O)N1CCN(c2ccccc2)CC1
[14]
  Change: -22%
[31]
  Change: -68%
